# According to ChEMBL document CHEMBL5053512, “Discovery and Preclinical Pharmacology of an Oral Bromodomain and Extra-Terminal (BET) Inhibitor Using Scaffold-Hopping and Structure-Guided Drug Design” (J Med Chem, 2021):
# Experiments:
# [1] = target: Bromodomain-containing protein 4 (Homo sapiens, UniProt O60885); experiment: Inhibition of human BRD4 (1 to 477 residues) measured after 60 mins by TR-FRET assay
# [2] = Antitumour activity against human JJN3R cells measured after 72 hrs by MTS assay; type: functional, cell-based; conditions: JJN-3R
# [3] = Permeability coefficient of the compound by PAMPA; type: ADME; conditions: read-out: permeability
# [4] = Permeability coefficient across apical to basolateral side in human Caco-2 cells; type: ADME, cell-based; conditions: read-out: permeability
# [5] = Permeability coefficient across basolateral to apical side in human Caco-2 cells; type: ADME, cell-based; conditions: read-out: permeability
# [6] = AUC (0 to 7 hrs) in mouse at 30 mg/kg, po; type: ADME, organism-based; set-up: time < 7 hr, dose 30 mg/kg, route po; conditions: in vivo
# [7] = target: Bromodomain-containing protein 2 (Homo sapiens, UniProt P25440); experiment: Inhibition of human BRD2 measured by TR-FRET assay
# Chain of Bromodomain-containing protein 2 (P25440 whole entry): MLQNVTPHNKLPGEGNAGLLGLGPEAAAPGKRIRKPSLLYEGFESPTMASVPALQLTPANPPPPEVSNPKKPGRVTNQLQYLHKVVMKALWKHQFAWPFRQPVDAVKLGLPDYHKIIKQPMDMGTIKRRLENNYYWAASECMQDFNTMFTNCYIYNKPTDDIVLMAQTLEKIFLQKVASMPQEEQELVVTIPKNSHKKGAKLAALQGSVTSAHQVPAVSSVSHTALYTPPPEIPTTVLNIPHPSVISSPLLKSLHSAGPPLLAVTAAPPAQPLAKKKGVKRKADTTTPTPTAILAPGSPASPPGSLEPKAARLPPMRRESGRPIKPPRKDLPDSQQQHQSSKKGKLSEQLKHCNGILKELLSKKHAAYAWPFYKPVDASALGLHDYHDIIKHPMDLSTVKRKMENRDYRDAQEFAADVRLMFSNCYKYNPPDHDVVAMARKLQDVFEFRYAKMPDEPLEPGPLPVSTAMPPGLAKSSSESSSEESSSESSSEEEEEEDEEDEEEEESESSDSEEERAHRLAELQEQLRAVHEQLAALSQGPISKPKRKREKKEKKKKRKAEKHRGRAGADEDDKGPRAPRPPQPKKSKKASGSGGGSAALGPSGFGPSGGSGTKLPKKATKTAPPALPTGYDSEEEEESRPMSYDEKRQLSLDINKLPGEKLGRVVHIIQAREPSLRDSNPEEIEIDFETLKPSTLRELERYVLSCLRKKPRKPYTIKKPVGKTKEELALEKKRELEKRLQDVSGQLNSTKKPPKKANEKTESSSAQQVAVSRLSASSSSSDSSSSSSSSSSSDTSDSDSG
# Cytochrome P450 2C9 = Cytochrome P450 2C9 (Homo sapiens, UniProt P11712); experiment: Inhibition of CYP2C9 (unknown origin); type: ADME
# Chain of Cytochrome P450 2C9 (P11712 whole entry): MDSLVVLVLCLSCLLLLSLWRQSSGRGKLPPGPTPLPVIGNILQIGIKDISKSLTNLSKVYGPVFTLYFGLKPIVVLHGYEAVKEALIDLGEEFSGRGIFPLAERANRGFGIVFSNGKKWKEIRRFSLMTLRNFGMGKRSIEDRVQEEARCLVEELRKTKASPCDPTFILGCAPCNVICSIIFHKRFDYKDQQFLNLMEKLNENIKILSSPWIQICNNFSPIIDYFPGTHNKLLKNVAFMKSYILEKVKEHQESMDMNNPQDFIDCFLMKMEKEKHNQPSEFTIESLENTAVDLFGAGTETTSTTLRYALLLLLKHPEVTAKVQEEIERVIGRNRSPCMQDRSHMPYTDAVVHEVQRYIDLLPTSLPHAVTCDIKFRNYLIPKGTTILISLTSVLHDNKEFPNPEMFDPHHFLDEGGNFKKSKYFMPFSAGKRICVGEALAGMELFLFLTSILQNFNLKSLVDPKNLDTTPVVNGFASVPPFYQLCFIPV
# Cytochrome P450 2C19 = Cytochrome P450 2C19 (Homo sapiens, UniProt P33261); experiment: Inhibition of CYP2C19 (unknown origin); type: ADME
# Chain of Cytochrome P450 2C19 (P33261 whole entry): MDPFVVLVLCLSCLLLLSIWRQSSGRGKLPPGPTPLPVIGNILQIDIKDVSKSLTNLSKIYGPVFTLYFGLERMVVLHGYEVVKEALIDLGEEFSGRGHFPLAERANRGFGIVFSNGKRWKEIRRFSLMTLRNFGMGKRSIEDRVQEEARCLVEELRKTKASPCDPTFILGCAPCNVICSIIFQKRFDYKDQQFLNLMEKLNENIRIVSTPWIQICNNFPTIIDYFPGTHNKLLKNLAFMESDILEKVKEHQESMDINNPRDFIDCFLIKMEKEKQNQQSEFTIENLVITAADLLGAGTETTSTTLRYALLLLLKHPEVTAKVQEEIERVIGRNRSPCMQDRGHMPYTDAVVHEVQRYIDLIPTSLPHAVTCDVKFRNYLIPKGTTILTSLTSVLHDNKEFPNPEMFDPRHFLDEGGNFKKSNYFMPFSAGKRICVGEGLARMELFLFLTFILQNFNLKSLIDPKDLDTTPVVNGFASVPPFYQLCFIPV
# Cytochrome P450 3A4 = Cytochrome P450 3A4 (Homo sapiens, UniProt P08684); experiment: Inhibition of CYP3A4 (unknown origin); type: ADME
# Chain of Cytochrome P450 3A4 (P08684 whole entry): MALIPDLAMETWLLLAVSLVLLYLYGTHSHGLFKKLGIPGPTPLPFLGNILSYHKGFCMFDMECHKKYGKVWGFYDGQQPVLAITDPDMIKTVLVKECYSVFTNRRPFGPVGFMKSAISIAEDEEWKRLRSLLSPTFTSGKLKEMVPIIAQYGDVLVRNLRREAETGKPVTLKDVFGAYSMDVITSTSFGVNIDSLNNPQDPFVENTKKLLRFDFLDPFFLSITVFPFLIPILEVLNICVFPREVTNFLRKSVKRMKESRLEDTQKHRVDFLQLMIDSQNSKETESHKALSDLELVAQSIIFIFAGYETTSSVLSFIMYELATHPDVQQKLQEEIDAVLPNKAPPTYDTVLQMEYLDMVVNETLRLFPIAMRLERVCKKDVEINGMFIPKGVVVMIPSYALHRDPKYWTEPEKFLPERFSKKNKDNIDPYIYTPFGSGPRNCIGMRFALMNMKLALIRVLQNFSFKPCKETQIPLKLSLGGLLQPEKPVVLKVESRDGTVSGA
# [8] = target: T1, Voltage-gated inwardly rectifying potassium channel KCNH2 (Homo sapiens, UniProt Q12809); experiment: Inhibition of human ERG by flux assay
# T1 sequence (Q12809 whole entry): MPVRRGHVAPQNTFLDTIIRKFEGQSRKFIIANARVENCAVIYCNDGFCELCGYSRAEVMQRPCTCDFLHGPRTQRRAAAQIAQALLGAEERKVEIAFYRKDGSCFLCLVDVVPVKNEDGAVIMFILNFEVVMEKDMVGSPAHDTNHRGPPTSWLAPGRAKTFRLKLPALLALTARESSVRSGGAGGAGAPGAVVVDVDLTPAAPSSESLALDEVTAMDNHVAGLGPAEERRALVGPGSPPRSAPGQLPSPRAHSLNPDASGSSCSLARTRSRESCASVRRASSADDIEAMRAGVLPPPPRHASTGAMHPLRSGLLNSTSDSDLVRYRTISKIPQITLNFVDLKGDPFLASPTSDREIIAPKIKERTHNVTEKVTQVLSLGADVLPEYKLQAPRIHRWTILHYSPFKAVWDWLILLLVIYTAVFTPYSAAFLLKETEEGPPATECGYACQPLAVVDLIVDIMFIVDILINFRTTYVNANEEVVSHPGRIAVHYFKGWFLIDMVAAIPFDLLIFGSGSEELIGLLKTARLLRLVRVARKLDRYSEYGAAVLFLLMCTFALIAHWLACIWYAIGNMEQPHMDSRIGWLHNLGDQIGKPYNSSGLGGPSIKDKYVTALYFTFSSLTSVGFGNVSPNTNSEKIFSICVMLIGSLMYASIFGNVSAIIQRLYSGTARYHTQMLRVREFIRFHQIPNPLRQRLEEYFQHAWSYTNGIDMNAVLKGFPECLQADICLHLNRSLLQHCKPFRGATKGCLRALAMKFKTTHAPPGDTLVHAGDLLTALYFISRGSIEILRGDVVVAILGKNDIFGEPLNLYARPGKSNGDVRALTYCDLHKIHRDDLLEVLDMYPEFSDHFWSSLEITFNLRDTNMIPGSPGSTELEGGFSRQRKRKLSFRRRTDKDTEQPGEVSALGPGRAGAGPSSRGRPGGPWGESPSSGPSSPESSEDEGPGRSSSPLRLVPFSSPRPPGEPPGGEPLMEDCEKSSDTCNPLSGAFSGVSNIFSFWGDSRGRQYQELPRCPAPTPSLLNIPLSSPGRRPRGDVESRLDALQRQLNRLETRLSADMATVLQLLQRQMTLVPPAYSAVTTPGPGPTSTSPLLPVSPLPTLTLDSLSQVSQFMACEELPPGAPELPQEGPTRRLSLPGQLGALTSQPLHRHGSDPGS
# [9] = target: T1, Voltage-gated inwardly rectifying potassium channel KCNH2; experiment: Inhibition of human ERG by patch-clamp assay
# [10] = Oral bioavailability in rat at 5 mg/kg; type: ADME, organism-based; conditions: in vivo
# [11] = Elimination half life in rat at 1 mg/kg, iv; type: ADME, organism-based; conditions: in vivo, read-out: beta t1/2 (converted)
# [12] = Total plasma clearance in mouse at 1.75 mg/kg, iv; type: ADME, organism-based
# [13] = Total plasma clearance in rat at 1 mg/kg, iv; type: ADME, organism-based
# [14] = Volume of distribution at steady state in mouse at 1.75 mg/kg, iv; type: ADME, organism-based; conditions: in vivo, read-out: Vdss
# [15] = Volume of distribution at steady state in dog at 0.1 mg/kg, iv; type: ADME, organism-based, Canis lupus familiaris; conditions: in vivo, read-out: Vdss
# [16] = Volume of distribution at steady state in monkey at 0.1 mg/kg, iv; type: ADME, organism-based, Macaca mulatta; conditions: rhesus monkey, in vivo, read-out: Vdss
# NCI-H211 = experiment: Anticancer activity against human NCI-H211 cells; type: functional, cell-based
# DMS-114 = experiment: Anticancer activity against human DMS-114 cells; type: functional, cell-based
# NCI-H146 = experiment: Anticancer activity against human NCI-H146 cells; type: functional, cell-based
# NCI-H23 = experiment: Anticancer activity against human NCI-H23 cells; type: functional, cell-based
# NCI-H2228 = experiment: Anticancer activity against human […] cells; type: functional, cell-based
# SK-LU-1 = experiment: Anticancer activity against human SK-LU-1 cells; type: functional, cell-based
# [17] = Anticancer activity against human HCC15 cells; type: functional, cell-based
# NCI-H647 = experiment: Anticancer activity against human NCI-H647 cells; type: functional, cell-based
# [18] = Anticancer activity against human HCC1588 cells; type: functional, cell-based
# NCI-H1355 = experiment: Anticancer activity against human NCI-H1355 cells; type: functional, cell-based
# NCI-H1703 = experiment: Anticancer activity against human NCI-H1703 cells; type: functional, cell-based
# NCI-H1792 = experiment: Anticancer activity against human NCI-H1792 cells; type: functional, cell-based
# NCI-H2030 = experiment: Anticancer activity against human NCI-H2030 cells; type: functional, cell-based
# SK-MES-1 = experiment: Anticancer activity against human SK-MES-1 cells; type: functional, cell-based
# SW900 = experiment: Anticancer activity against human SW900 cells; type: functional, cell-based
# [19] = Anticancer activity against human JJN3R cells; type: functional, cell-based; conditions: JJN-3R
# MOLM-13 = experiment: Anticancer activity against human MOLM-13 cells; type: functional, cell-based
# OCI-AML-3 = experiment: Anticancer activity against human OCI-AML3 cells; type: functional, cell-based
# [20] = Antitumour activity against human LG0787F cells xenografted in NSG mouse assessed as tumour growth inhibition at 1 mg/kg/day, po bid; type: functional; conditions: read-out: TGI
# [21] = Cmax in human LG0787F cells xenografted in NSG mouse at 1 mg/kg/day, po qd; type: ADME, organism-based; set-up: dose 1 mg/kg/day, route po; conditions: in vivo
# [22] = AUC in human LG0787F cells xenografted in NSG mouse at 0.25 mg/kg/day, po bid; type: ADME, organism-based; set-up: dose 0.25 mg/kg/day, route po; conditions: in vivo
# [23] = Antitumour activity against human LG0787F cells xenografted in NSG mouse assessed as tumour growth inhibition at 0.5 mg/kg/day infused continuously over 6 days using Alzet pump; type: functional; conditions: 144 h, time 6 day, read-out: TGI
# [24] = Antitumour activity against human LG0787F cells xenografted in NSG mouse at 1 mg/kg/day infused continuously over 6 days using Alzet pump; type: functional; conditions: 144 h, time 6 day, read-out: TGI
# [25] = Drug concentration at steady state in human LG0787F cells xenografted in NSG mouse at 1 mg/kg/day infused continuously over 6 days using Alzet pump; type: ADME, organism-based; conditions: in vivo, 144 h, time 6 day
# [26] = Antitumour activity against patient-derived human PAT81 cells xenografted in mouse model at 1.6 mg/kg, po bid, 5 days on and 2 days off for 2 weeks; type: functional; conditions: PAT81, 120 h, time 5 day, read-out: TGI
# [27] = Antitumour activity against patient-derived human BR1977F cells xenografted in mouse model at 1.6 mg/kg, po bid, 5 days on and 2 days off for 2 weeks; type: functional; conditions: 120 h, time 5 day, read-out: TGI
# [28] = Antitumour activity against patient-derived human PAT121 cells xenografted in mouse model at 1.6 mg/kg, po bid, 5 days on and 2 days off for 2 weeks; type: functional; conditions: PAT121, 120 h, time 5 day, read-out: TGI
# [29] = Antitumour activity against patient-derived human PAT150 cells xenografted in mouse model at 1.6 mg/kg, po bid, 5 days on and 2 days off for 2 weeks; type: functional; conditions: PAT150, 120 h, time 5 day, read-out: TGI
# [30] = Antitumour activity against patient-derived human BR0869F cells xenografted in mouse model at 1.6 mg/kg, po bid, 5 days on and 2 days off for 2 weeks; type: functional; conditions: 120 h, time 5 day, read-out: TGI
# [31] = Antitumour activity against patient-derived human LGO52.0F/Cis/R48 cells xenografted in mouse model at 1.6 mg/kg, po bid, 5 days on and 2 days off for 2 weeks; type: functional; conditions: LGO52.0F/Cis/R48, 120 h, time 5 day, read-out: TGI
# [32] = Antitumour activity against patient-derived human BR0851F cells xenografted in mouse model at 1.6 mg/kg, po bid, 5 days on and 2 days off for 2 weeks; type: functional; conditions: 120 h, time 5 day, read-out: TGI
# [33] = Antitumour activity against patient-derived human PAT157 cells xenografted in mouse model at 1.6 mg/kg, po bid, 5 days on and 2 days off for 2 weeks; type: functional; conditions: PAT157, 120 h, time 5 day, read-out: TGI
# [34] = Antitumour activity against patient-derived human PAT160 cells xenografted in mouse model at 1.6 mg/kg, po bid, 5 days on and 2 days off for 2 weeks; type: functional; conditions: PAT160, 120 h, time 5 day, read-out: TGI
structure (smiles),measurement,setting,value
Cc1nnn(C)c1-c1cnc2c3ccc(C(C)(C)O)cc3n([C@H](c3ccccc3)C3CCOCC3)c2c1 [EZOBRESIB],IC50,[1],1.1 nM
same,IC50,[2],3.6 nM
same,Papp,[3],66.1 ×10⁻⁶ cm/s
same,Papp A→B,[4],13.3 ×10⁻⁶ cm/s
same,Papp B→A,[5],34.7 ×10⁻⁶ cm/s
same,AUC(0-t) at 7 h,[6],49.6 µM·h
same,IC50,[7],1.4 nM
same,IC50,Cytochrome P450 2C9,11800 nM
same,IC50,Cytochrome P450 2C19,5600 nM
same,IC50,Cytochrome P450 3A4,> 20000 nM
same,IC50,[8],> 80000 nM
same,IC50,[9],28000 nM
same,bioavailability,[10],47%
same,half-life,[11],4.2 h
same,clearance,[12],12 mL/min/kg
same,clearance,[13],41 mL/min/kg
same,Vd,[14],1.9 L/kg
same,Vd,[15],5.3 L/kg
same,Vd,[16],4.2 L/kg
same,IC50,NCI-H211,0.3 nM
same,IC50,DMS-114,0.32 nM
same,IC50,NCI-H146,0.41 nM
same,IC50,NCI-H23,62 nM
same,IC50,NCI-H2228,166 nM
same,IC50,SK-LU-1,210 nM
same,IC50,[17],365 nM
same,IC50,NCI-H647,441 nM
same,IC50,[18],> 500 nM
same,IC50,NCI-H1355,> 500 nM
same,IC50,NCI-H1703,> 500 nM
same,IC50,NCI-H1792,> 500 nM
same,IC50,NCI-H2030,> 500 nM
same,IC50,SK-MES-1,> 500 nM
same,IC50,SW900,> 500 nM
same,IC50,[19],0.7 nM
same,IC50,MOLM-13,1.7 nM
same,IC50,OCI-AML-3,0.7 nM
same,inhibition in vivo at 1 mg/kg/day,[20],70%
same,Cmax,[21],150 nM
same,AUC,[22],0.3 µM·h
same,inhibition in vivo at 0.5 mg/kg/day,[23],62%
same,inhibition in vivo at 1 mg/kg/day,[24],78%
same,Css,[25],17 nM
same,inhibition in vivo at 1.6 mg/kg,[26],112%
same,inhibition in vivo at 1.6 mg/kg,[27],88%
same,inhibition in vivo at 1.6 mg/kg,[28],85%
same,inhibition in vivo at 1.6 mg/kg,[29],62%
same,inhibition in vivo at 1.6 mg/kg,[30],56%
same,inhibition in vivo at 1.6 mg/kg,[31],50%
same,inhibition in vivo at 1.6 mg/kg,[32],49%
same,inhibition in vivo at 1.6 mg/kg,[33],23%
same,inhibition in vivo at 1.6 mg/kg,[34],9%
